Assay [1] concerns the target T1, MsPLD (Moritella sp. JT01, UniProt A0A137SLD1, S169C/T227C/D246C/A349C).
T1 construct: gene AKG98_3441; tag removal not mentioned
T1 sequence (A0A137SLD1 29-578 S169C/T227C/D246C/A349C): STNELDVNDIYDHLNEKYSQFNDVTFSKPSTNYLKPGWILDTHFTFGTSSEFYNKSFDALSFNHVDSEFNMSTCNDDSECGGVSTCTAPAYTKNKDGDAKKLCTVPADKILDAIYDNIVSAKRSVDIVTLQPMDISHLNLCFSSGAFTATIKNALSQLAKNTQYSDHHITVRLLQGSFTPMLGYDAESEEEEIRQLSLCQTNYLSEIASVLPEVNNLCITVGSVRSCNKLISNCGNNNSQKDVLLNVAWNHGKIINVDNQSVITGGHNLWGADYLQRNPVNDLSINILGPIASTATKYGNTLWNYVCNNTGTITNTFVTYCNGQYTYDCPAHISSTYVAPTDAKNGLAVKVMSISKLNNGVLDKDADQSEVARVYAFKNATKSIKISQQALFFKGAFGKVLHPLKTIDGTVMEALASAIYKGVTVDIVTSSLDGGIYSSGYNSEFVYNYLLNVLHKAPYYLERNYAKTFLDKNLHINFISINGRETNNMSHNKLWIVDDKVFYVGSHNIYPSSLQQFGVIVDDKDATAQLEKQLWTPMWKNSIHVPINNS
The assay is described as follows: coupled choline oxidase/peroxidase colorimetric assay ([…] nm), non-linear regression. The following applies: 35 °C, pH 8.0, PC 1.0-3.0 mM, 5 min; hydrolysis; free enzyme. The assay is classed as biochemical.

The target in assay [2] is T2, MsPLD (Moritella sp. JT01, UniProt A0A137SLD1).
T2 construct: gene AKG98_3441; tag removal not mentioned
T2 sequence (A0A137SLD1 29-578): T1 sequence (A0A137SLD1 29-578 S169C/T227C/D246C/A349C) with C141S, C199T, C218D, C321A
The assay is described as above. The assay is classed as biochemical. The following applies: 35 °C, pH 8.0, PC 1.0-3.0 mM, 5 min; hydrolysis; free enzyme.

Among the data in PMC9570233, “Improving Both the Thermostability and Catalytic Efficiency of Phospholipase D from Moritella sp. JT01 through Disulfide Bond Engineering Strategy” (International Journal of Molecular Sciences, 2022) are Km values, retold here.

Positions count from the first letter of the chain named.

With L-α-phosphatidylcholine, the figures for the Km on MsPLD [1] and on MsPLD [2] were 2.71 ± 0.89 mM and 3.44 ± 0.81 mM, respectively.

What is called Km is the concentration of substrate that gives half-maximal velocity.
